In patent US20090018150A1, “5-Ht2b Receptor Antagonists” (ASTERAND UK LIMITED, priority 2003, published 2009):

Key:
[1] = target: T1, human cloned 5-HT2B receptors (Homo sapiens, UniProt P41595); assay: Human cloned 5-HT2B receptor binding assay; conditions: [3H]LSD (1 nM) displacement, membranes of CHO-K1 cells expressing cloned 5-HT2B receptor; read-out: 5-HT2B pKi (converted)
T1 construct: expressed in transfected cells; host or cells: CHO-K1
How it was run: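 Membranes from CHO-K1 cells expressing cloned receptor incubated 30 min at 37 °C with 1 nM [3H]LSD, 10 μM pargyline and compound (1×10^−10 to 1×10^−4 M) in 50 mM Tris-HCl pH 7.4, 4 mM CaCl2. Nonspecific binding with 100 μM 5-HT; filtration and scintillation counting, IC50 converted to Ki using Kd from saturation binding.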

[2] = target: T2, cloned human 5-HT2A receptor (Homo sapiens, UniProt P28223); assay: Human 5-HT2A receptor binding assay; conditions: [3H]ketanserin (1 nM) displacement, CHO-K1 cell membranes; read-out: 5-HT2A pKi (converted)
T2 construct: purchased Euroscreen; host or cells: CHO-K1
T2 sequence (P28223 whole entry): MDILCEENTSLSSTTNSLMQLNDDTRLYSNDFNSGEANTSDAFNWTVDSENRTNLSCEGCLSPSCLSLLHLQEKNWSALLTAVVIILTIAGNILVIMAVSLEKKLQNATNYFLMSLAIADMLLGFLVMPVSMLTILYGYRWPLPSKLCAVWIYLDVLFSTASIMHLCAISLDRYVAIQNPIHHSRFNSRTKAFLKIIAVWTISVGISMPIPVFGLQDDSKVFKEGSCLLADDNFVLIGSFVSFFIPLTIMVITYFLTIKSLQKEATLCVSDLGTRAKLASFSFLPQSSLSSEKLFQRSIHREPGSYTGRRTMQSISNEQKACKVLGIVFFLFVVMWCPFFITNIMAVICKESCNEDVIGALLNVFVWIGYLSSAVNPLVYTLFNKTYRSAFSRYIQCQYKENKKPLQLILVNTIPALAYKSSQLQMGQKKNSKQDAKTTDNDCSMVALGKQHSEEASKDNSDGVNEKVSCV
How it was run: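 Competition binding with 15 μg membranes from CHO-K1 cells expressing cloned human receptor, 1 nM [3H]ketanserin, 10 μM pargyline, 50 mM Tris pH 7.4, compounds 1×10^−10 to 1×10^−4 M; 100 μM mianserin defined nonspecific binding. Incubated 15 min at 37 °C, filtered, counted; IC50 converted to Ki using saturation-derived Kd.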

[3] = target: T3, cloned human 5-HT2C receptor (Homo sapiens, UniProt P28335); assay: Human 5-HT2C receptor binding assay; conditions: [3H]mesulergine (1 nM) displacement, CHO-K1 cell membranes; read-out: 5-HT2C pKi (converted)
T3 construct: purchased Euroscreen; host or cells: CHO-K1
T3 sequence (P28335 33-458): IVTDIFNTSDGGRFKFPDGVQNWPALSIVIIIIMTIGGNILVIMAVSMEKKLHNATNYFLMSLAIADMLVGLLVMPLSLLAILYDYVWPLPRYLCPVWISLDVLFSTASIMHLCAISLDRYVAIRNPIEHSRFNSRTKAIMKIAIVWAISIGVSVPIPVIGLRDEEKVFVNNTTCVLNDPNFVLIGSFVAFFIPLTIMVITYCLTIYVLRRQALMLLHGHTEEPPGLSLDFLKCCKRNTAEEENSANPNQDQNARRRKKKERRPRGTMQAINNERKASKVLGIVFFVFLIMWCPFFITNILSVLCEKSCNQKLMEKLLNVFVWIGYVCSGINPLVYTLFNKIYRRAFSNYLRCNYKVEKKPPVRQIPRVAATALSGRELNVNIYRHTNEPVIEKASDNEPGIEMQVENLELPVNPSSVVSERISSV
How it was run: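 CHO-K1 cell membranes expressing the receptor (6 μg) competed against [^3H]mesulergine (1 nM) in 50 mM Tris-HCl pH 7.7, 0.1% ascorbic acid, 10 μM pargyline for 30 min at 37° C; compounds 1×10^−10 to 1×10^−4M. Nonspecific binding with 100 μM mianserin; filtration and scintillation counting. IC50 converted to Ki using saturation-derived Kd.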

[4] = target: T1, human cloned 5-HT2B receptors; assay: Human cloned 5-HT2B cell-based functional assay; conditions: inhibition of 5-HT response, Fluo-4 AM, CHO.K1 cells expressing cloned 5-HT2B receptor
Description: The following describes an in vitro functional assay using human cloned 5-HT2B receptors to determine the ability of compounds to block the receptor. CHO.K1 cells expressing cloned 5-HT2B receptor were maintained In Ultra-CHO medium containing 400 μg/ml of G418, 1000 U/ml penicillin, 100 μg/ml streptomycin, 2.5 μg/ml fungizone, in 95/5% O2/CO2 at 37° C. Ultra-CHO medium additionally supplemented with 1% foetal bovine serum was used when seeding the cells and removed after 5 hours. Cells were plated in Costar 96 well white, clear-bottomed plate at a density of 50,000 cells per well and incubated for at least 24 hours in 95/5% O2/CO2 at 37° C. before running the assay. Media was removed from the wells and 200 μl of 4 μM Fluo-4 AM added, this was incubated in a Wallace Victor 2V workstation at 37° C. for 30 minutes. The Fluo-4 AM was then removed from the wells, which were then washed twice with 200 μl of buffer (HBSS without calcium/magnesium/phenol red, 20 mM HEPES, 1 mM Ca^2+, 1 mM Mg^2+, 2.5 mM probenecid, pH to 7.4), 180 μl of buffer or test compound was added to the well and incubated for 30 minutes. The Victor 2V injectors were used to inject 20 μl of 5-HT after obtaining 10 0.1-second baseline readings at 535 nm, followed by 150 readings. All test compounds were aliquoted in 100% DMSO at 10 mM and diluted to 1 mM in 50% DMSO, subsequent dilutions were made using buffer. Buffer was also used to dilute the 5-HT. Data were analysed using Microsoft Excel and GraphPad Prism, with the latter used to produce sigmoidal dose-response curves for each compound. The compound concentration that inhibited the 5-HT response by 50% was taken (IC50-M), and the results are shown in Table 2, as pIC50, being the negative log (to the base 10) of the measured IC50 values.

T1 sequence (P41595 whole entry): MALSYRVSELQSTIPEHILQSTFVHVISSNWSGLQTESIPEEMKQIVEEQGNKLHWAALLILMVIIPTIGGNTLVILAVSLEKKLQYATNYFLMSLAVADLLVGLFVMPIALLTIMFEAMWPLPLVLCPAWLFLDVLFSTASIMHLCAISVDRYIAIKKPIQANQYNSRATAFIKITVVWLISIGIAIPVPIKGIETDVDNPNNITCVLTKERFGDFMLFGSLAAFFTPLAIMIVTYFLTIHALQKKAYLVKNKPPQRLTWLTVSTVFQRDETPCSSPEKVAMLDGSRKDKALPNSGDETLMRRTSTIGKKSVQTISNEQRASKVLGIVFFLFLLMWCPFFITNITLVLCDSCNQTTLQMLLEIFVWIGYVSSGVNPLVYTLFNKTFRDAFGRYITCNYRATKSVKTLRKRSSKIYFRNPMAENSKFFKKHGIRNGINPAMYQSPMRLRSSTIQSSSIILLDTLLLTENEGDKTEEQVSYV

| SMILES | Ki [1] [nM] | Ki [2] [nM] | Ki [3] [nM] | IC50 [4] [nM] |
| --- | --- | --- | --- | --- |
| COc1ccc2ccccc2c1-c1c[nH]c(NC(C)=O)n1 [Compound 103C, N-[4-(2-Methoxy-naphthalen-1-yl)-1H-imidazol-2-yl]-acetamide] | < 100 | > 316 | > 316 | < 100 |
| CC(=O)Nc1nc(-c2ccc(F)c3ccccc23)c[nH]1 [Compound 103F, N-[4-(4-Fluoro-naphthalen-1-yl)-1H-imidazol-2-yl]-acetamide] | < 100 | > 3160 | > 3160 | < 100 |
| COc1ccc2ccccc2c1-c1c[nH]c(N)n1 [Compound 104C, 4-(2-Methoxy-naphthalen-1-yl)-1H-imidazol-2-ylamine] | < 100 | > 1000 | > 316 | < 1000 |
| COc1ccc2ccccc2c1-c1nc(N)[nH]c1C [Compound 104J, 4-(2-Methoxy-naphthalen-1-yl)-5-methyl-1H-imidazol-2-ylamine] | < 100 | > 316 | > 100 | < 100 |
| Cc1cc(C)cc(-c2cccc(-c3cnc(N)o3)c2)c1 [Compound 209K, 5-(3′,5′-Dimethyl-biphenyl-3-yl)-oxazol-2-ylamine, trifluoroacetic acid] | < 1000 | > 1000 | > 1000 | – |
| COc1ccccc1-c1cccc(-c2nc(N)oc2C)c1 [Compound 218C, 4-(2′-methoxy-biphenyl-3-yl)-5-methyl-oxazol-2-ylamine, trifluoroacetic acid] | < 316 | > 1000 | > 1000 | – |
| COc1ccccc1-c1cccc(-c2oc(N)nc2C)c1 [Compound 219B, 5-(2′-Methoxy-biphenyl-3-yl)-4-methyl-oxazol-2-ylamine, trifluoroacetic acid] | < 100 | > 1000 | > 1000 | < 1000 |
| COc1ccc(-c2ccccc2)cc1-c1cnc(N)o1 [Compound 224A, 5-(4-methoxy-biphenyl-3-yl)-oxazol-2-ylamine, trifluoroacetic acid] | < 1000 | > 1000 | > 1000 | – |
| Cn1nc(N)nc1Nc1cccc(-c2ccccc2)c1 [Compound 406A, N^5-biphenyl-3-yl-1-methyl-1H-[1,2,4]triazole-3,5-diamine] | < 316 | > 1000 | > 1000 | – |
| COc1ccccc1-c1cccc(Nc2nc(N)nn2C)c1 [Compound 406B, N^5-(2′-methoxy-biphenyl-3-yl)-1-methyl-1H-[1,2,4]triazole-3,5-diamine] | < 316 | > 1000 | > 1000 | – |
| Cc1cccc(-c2cccc(Nc3nc(N)nn3C)c2)c1 [Compound 406C, 1-methyl-1-(3′-methyl-biphenyl-3-yl)-1H-[1,2,4]triazole-3,5-diamine] | < 100 | > 1000 | > 1000 | < 100 |

Now from value to compound, other results behind:

| Ki [1] [nM] | Ki [2] [nM] | Ki [3] [nM] | SMILES | IC50 [4] [nM] |
| --- | --- | --- | --- | --- |
| < 1000 | > 1000 | > 1000 | Nc1ncc(-c2cccc(-c3ccc(F)cc3)c2)o1 [Compound 209J, 5-(4′-Fluoro-biphenyl-3-yl)-oxazol-2-ylamine, trifluoroacetic acid] | – |
| < 1000 | > 1000 | > 1000 | Cc1oc(N)nc1-c1cccc(-c2ccccc2)c1 [Compound 218A, 4-Biphenyl-3-yl-5-methyl-oxazol-2-ylamine, trifluoroacetic acid] | – |
| < 316 | > 1000 | > 1000 | Cc1nc(N)oc1-c1cccc(-c2ccccc2)c1 [Compound 219A, 5-biphenyl-3-yl-4-methyl-oxazol-2-ylamine, trifluoroacetic acid] | – |
| < 316 | > 1000 | > 1000 | COc1ccccc1-c1ccc(OC)c(-c2cnc(N)o2)c1 [Compound 224B, 5-(4,2′-dimethoxy-biphenyl-3-yl)-oxazol-2-ylamine, trifluoroacetic acid] | – |
| < 1000 | > 1000 | > 1000 | COc1ccc(-c2cccc(C)c2)cc1-c1cnc(N)o1 [Compound 224C, 5-(4-Methoxy-3′-methyl-biphenyl-3-yl)-oxazol-2-ylamine, trifluoroacetic acid] | – |
| < 1000 | > 1000 | > 1000 | Cc1cccc(-c2ccc(Nc3nc(N)nn3C)cc2)c1 [Compound 410C, 1-methyl-N^5-(3′-methyl-biphenyl-4-yl)-1H-[1,2,4]triazole-3,5-diamine trifluoroacetic acid] | – |
| < 1000 | > 1000 | > 1000 | Cn1nc(Nc2ccc(-c3ccccc3)cc2)nc1N [Compound 411A, N^3-biphenyl-4-yl-1-methyl-1H-[1,2,4]triazole-3,5-diamine trifluoroacetic acid] | – |
| < 1000 | > 1000 | > 1000 | COc1ccccc1-c1ccc(Nc2nc(N)n(C)n2)cc1 [Compound 411B, N^3-(2′-methoxy-biphenyl-4-yl)-7-methyl-1H-[1,2,4]triazole-3,5-diamine trifluoroacetic acid] | – |
| < 1000 | > 1000 | > 1000 | Cc1cccc(-c2ccc(Nc3nc(N)n(C)n3)cc2)c1 [Compound 411C, 1-methyl-N^3-(3′-methyl-biphenyl-4-yl)-1H-[1,2,4]triazole-3,5-diamine trifluoroacetic acid] | – |
